Results taken from the supplement of paper PMC10307832.

How the values were obtained:
Assay in all cases: relative viability (nuclei count vs DMSO), 5 days (fraction); higher = more cells survive
CAL-12T = system: CAL-12T
Summary of the method: (§1)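 Lung cancer cell lines in 1536-well plates were dosed by pin tool the day after seeding, either with one drug alone or with a fixed anchor-drug dose plus five library-drug doses (not always all listed) in √10 steps. After 5 days, cells were fixed and their nuclei stained in one step (final 0.05% Triton X-100, 1% formaldehyde, 1 ug/ml Hoechst), then counted on 4× images. Relative viability is the nuclei count in treated wells divided by that in vehicle wells. Values are medians of duplicate plates.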

COR-L 105 = system: COR-L 105
Summary of the method: as §1

H3255 = system: H3255
Summary of the method: as §1

HARA = system: HARA
Summary of the method: as §1

HCC-15 = system: HCC-15
Summary of the method: as §1

HCC-366 = system: HCC-366
Summary of the method: as §1

LC-2-ad = system: LC-2-ad
Summary of the method: as §1

LU99A = system: LU99A
Summary of the method: as §1

NCI-H1395 = system: NCI-H1395
Summary of the method: as §1

NCI-H1666 = system: NCI-H1666
Summary of the method: as §1

NCI-H1734 = system: NCI-H1734
Summary of the method: as §1

NCI-H1944 = system: NCI-H1944
Summary of the method: as §1

NCI-H1975 = system: NCI-H1975
Summary of the method: as §1

NCI-H1993 = system: NCI-H1993
Summary of the method: as §1

NCI-H2228 = system: NCI-H2228
Summary of the method: as §1

NCI-H3122 = system: NCI-H3122
Summary of the method: as §1

NCI-H520 = system: NCI-H520
Summary of the method: as §1

NCI-H647 = system: NCI-H647
Summary of the method: as §1

NCI-H661 = system: NCI-H661
Summary of the method: as §1

NCI-H838 = system: NCI-H838
Summary of the method: as §1

PC-14 = system: PC-14
Summary of the method: as §1

PC-3 [JPC-3] = system: PC-3 [JPC-3]
Summary of the method: as §1

SK-LU-1 = system: SK-LU-1
Summary of the method: as §1

`O=c1[nH]c2ccccc2n1C1CCN(CCCC(c2ccc(F)cc2)c2ccc(F)cc2)CC1` [Pimozide] + O=C(c1cc(Cc2n[nH]c(=O)c3ccccc23)ccc1F)N1CCN(C(=O)C2CC2)CC1 [Olaparib] (partner 8 µM) showed a relative viability (CAL-12T; first compound 0.08 µM) of 0.672, a relative viability (CAL-12T; first compound 0.253 µM) of 0.687 and a relative viability (CAL-12T; first compound 0.8 µM) of 0.709. The relative viability (CAL-12T; first compound 2.53 µM) was 0.698, the relative viability (CAL-12T; first compound 8 µM) was 0.623 and the relative viability (COR-L 105; first compound 0.08 µM) was 0.664. It also gave a relative viability (COR-L 105; first compound 0.253 µM) of 0.659, a relative viability (COR-L 105; first compound 0.8 µM) of 0.83 and a relative viability (COR-L 105; first compound 2.53 µM) of 0.696. For the same compound, the relative viability (COR-L 105; first compound 8 µM) was 0.664, the relative viability (H3255; first compound 0.253 µM) was 0.511 and the relative viability (H3255; first compound 0.8 µM) was 0.504. It also gave a relative viability (H3255; first compound 2.53 µM) of 0.523, a relative viability (H3255; first compound 8 µM) of 0.59 and a relative viability (HARA; first compound 0.08 µM) of 0.785. For the same compound, the relative viability (HARA; first compound 0.253 µM) was 0.764, the relative viability (HARA; first compound 0.8 µM) was 0.746 and the relative viability (HARA; first compound 2.53 µM) was 0.74. It also gave a relative viability (HARA; first compound 8 µM) of 0.749, a relative viability (HCC-15; first compound 0.08 µM) of 0.72 and a relative viability (HCC-15; first compound 0.253 µM) of 0.672. It also gave a relative viability (HCC-15; first compound 0.8 µM) of 0.717, a relative viability (HCC-15; first compound 2.53 µM) of 0.712 and a relative viability (HCC-15; first compound 8 µM) of 0.738. It also gave a relative viability (HCC-366; first compound 0.08 µM) of 0.355, a relative viability (HCC-366; first compound 0.253 µM) of 0.332 and a relative viability (HCC-366; first compound 0.8 µM) of 0.373. For the same compound, the relative viability (HCC-366; first compound 2.53 µM) was 0.323, the relative viability (HCC-366; first compound 8 µM) was 0.334 and the relative viability (LC-2-ad; first compound 0.08 µM) was 0.68. It also gave a relative viability (LC-2-ad; first compound 0.253 µM) of 0.731, a relative viability (LC-2-ad; first compound 0.8 µM) of 0.69 and a relative viability (LC-2-ad; first compound 2.53 µM) of 0.668. For the same compound, the relative viability (LC-2-ad; first compound 8 µM) was 0.673, the relative viability (LU99A; first compound 0.08 µM) was 0.251 and the relative viability (LU99A; first compound 0.8 µM) was 0.26. It also gave a relative viability (LU99A; first compound 2.53 µM) of 0.297, a relative viability (LU99A; first compound 8 µM) of 0.254 and a relative viability (NCI-H1395; first compound 0.08 µM) of 0.445. The relative viability (NCI-H1395; first compound 0.253 µM) was 0.478, the relative viability (NCI-H1395; first compound 0.8 µM) was 0.475 and the relative viability (NCI-H1395; first compound 2.53 µM) was 0.456. For the same compound, the relative viability (NCI-H1395; first compound 8 µM) was 0.419, the relative viability (NCI-H1666; first compound 0.08 µM) was 0.708 and the relative viability (NCI-H1666; first compound 0.253 µM) was 0.737. For the same compound, the relative viability (NCI-H1666; first compound 0.8 µM) was 0.787, the relative viability (NCI-H1666; first compound 2.53 µM) was 0.756 and the relative viability (NCI-H1666; first compound 8 µM) was 0.754. It also gave a relative viability (NCI-H1734; first compound 0.08 µM) of 0.645, a relative viability (NCI-H1734; first compound 0.253 µM) of 0.563 and a relative viability (NCI-H1734; first compound 0.8 µM) of 0.613. For the same compound, the relative viability (NCI-H1734; first compound 2.53 µM) was 0.636, the relative viability (NCI-H1734; first compound 8 µM) was 0.637 and the relative viability (NCI-H1944; first compound 0.08 µM) was 0.427. The relative viability (NCI-H1944; first compound 2.53 µM) was 0.35, the relative viability (NCI-H1944; first compound 8 µM) was 0.413 and the relative viability (NCI-H1975; first compound 0.08 µM) was 0.934. It also gave a relative viability (NCI-H1975; first compound 0.253 µM) of 0.782, a relative viability (NCI-H1975; first compound 0.8 µM) of 0.858 and a relative viability (NCI-H1975; first compound 2.53 µM) of 0.75. It also gave a relative viability (NCI-H1975; first compound 8 µM) of 0.625, a relative viability (NCI-H1993; first compound 0.08 µM) of 0.95 and a relative viability (NCI-H1993; first compound 0.253 µM) of 1.12. The relative viability (NCI-H1993; first compound 0.8 µM) was 0.918, the relative viability (NCI-H1993; first compound 2.53 µM) was 1.05 and the relative viability (NCI-H1993; first compound 8 µM) was 1.13. For the same compound, the relative viability (NCI-H2228; first compound 0.08 µM) was 0.759, the relative viability (NCI-H2228; first compound 0.253 µM) was 0.699 and the relative viability (NCI-H2228; first compound 0.8 µM) was 0.555. For the same compound, the relative viability (NCI-H2228; first compound 2.53 µM) was 0.45, the relative viability (NCI-H2228; first compound 8 µM) was 0.344 and the relative viability (NCI-H3122; first compound 0.08 µM) was 0.529. The relative viability (NCI-H3122; first compound 0.253 µM) was 0.684, the relative viability (NCI-H3122; first compound 0.8 µM) was 0.66 and the relative viability (NCI-H3122; first compound 2.53 µM) was 0.637. The relative viability (NCI-H3122; first compound 8 µM) was 0.576, the relative viability (NCI-H520; first compound 0.08 µM) was 0.33 and the relative viability (NCI-H520; first compound 0.253 µM) was 0.345. For the same compound, the relative viability (NCI-H520; first compound 0.8 µM) was 0.266, the relative viability (NCI-H520; first compound 2.53 µM) was 0.312 and the relative viability (NCI-H520; first compound 8 µM) was 0.276. For the same compound, the relative viability (NCI-H647; first compound 0.08 µM) was 0.562, the relative viability (NCI-H647; first compound 0.253 µM) was 0.503 and the relative viability (NCI-H647; first compound 0.8 µM) was 0.391. It also gave a relative viability (NCI-H647; first compound 2.53 µM) of 0.495, a relative viability (NCI-H647; first compound 8 µM) of 0.28 and a relative viability (NCI-H661; first compound 0.08 µM) of 0.735. The relative viability (NCI-H661; first compound 0.253 µM) was 0.699, the relative viability (NCI-H661; first compound 0.8 µM) was 0.704 and the relative viability (NCI-H661; first compound 2.53 µM) was 0.675. It also gave a relative viability (NCI-H661; first compound 8 µM) of 0.587, a relative viability (NCI-H838; first compound 0.08 µM) of 0.772 and a relative viability (NCI-H838; first compound 0.253 µM) of 0.757. For the same compound, the relative viability (NCI-H838; first compound 0.8 µM) was 0.729, the relative viability (NCI-H838; first compound 2.53 µM) was 0.719 and the relative viability (NCI-H838; first compound 8 µM) was 0.744. For the same compound, the relative viability (PC-14; first compound 0.253 µM) was 0.276, the relative viability (PC-14; first compound 0.8 µM) was 0.225 and the relative viability (PC-14; first compound 2.53 µM) was 0.215. The relative viability (PC-14; first compound 8 µM) was 0.209, the relative viability (PC-3 [JPC-3]; first compound 0.253 µM) was 1.09 and the relative viability (PC-3 [JPC-3]; first compound 0.8 µM) was 1.1. The relative viability (PC-3 [JPC-3]; first compound 2.53 µM) was 1.08, the relative viability (PC-3 [JPC-3]; first compound 8 µM) was 1 and the relative viability (SK-LU-1; first compound 0.08 µM) was 0.497. It also gave a relative viability (SK-LU-1; first compound 0.253 µM) of 0.485, a relative viability (SK-LU-1; first compound 0.8 µM) of 0.487 and a relative viability (SK-LU-1; first compound 2.53 µM) of 0.372. The relative viability (SK-LU-1; first compound 8 µM) was 0.383.
